Results published in patent US20210002723A1, “METHODS FOR ASSESSING RESPONSIVENESS TO ASTHMA TREATMENT BASED ON VNN-1 EXPRESSION AND PROMOTER METHYLATION” (Children's Hospital Medical Center, priority 2014, published 2021).

What was measured:
VNN1−/− mice = assay: Experimental asthma model (repeated HDM exposure), response to dexamethasone in VNN1−/− mice; assay type: in vivo, mouse; conditions: dexamethasone 3 mg/kg i.p. last 5 days, mean ± SEM vs HDM-treated group
Procedure: (§1) The VNN1^−/− mice used in this study were described in Pitari et al., FEBS letters 2000; 483:149-54. Age- and sex-matched wild-type BALB/c mice were purchased from Harlan Laboratories (Indianapolis, Ind.). All mice were housed in a specific pathogen-free environment following routine practice.
(§2) Mice were exposed to intranasal doses of HDM (20 ug in 50 ul saline) or saline (0.9% NaCl, 50 ul; control group) 3 times a week for 3 weeks as previously described 18. Mice were treated with intra-peritoneal dexamethasone (3 mg/kg in dimethyl sulfoxide, (DMSO)) or DMSO (100 ul) for the last 5 days of the 3 week model. Airway hyperresponsiveness (AHR) was assessed 24 hours after the last HDM challenge using a flexiVent system (SCIREQ, Montreal, QC, Canada) as previously described. See, e.g., Brandt et al., J Allergy Clin Immunol., 2013; 132:1194-204 e2. Bronchoalveolar lavage fluid (BALF) was collected, processed, and inflammatory cells were quantified analyzed as previously described. See Brandt et al., 2013.
(§3) For the experimental asthma model results, individual AHR, total BALF cell counts and eosinophil percentage in mice treated with HDM plus dexamethasone were compared to and normalized by the corresponding mean value in the HDM-treated group. The data are presented as means±SEM. Difference between the WT and VNN1^−/− group was tested by non-parametric Mann Whitney test. A p-value<0.05 was considered significant. Percentage reduction was used to present the steroid response results.

WT mice = assay: Experimental asthma model (repeated HDM exposure), response to dexamethasone in wild-type mice; assay type: in vivo, mouse (BALB/c); conditions: dexamethasone 3 mg/kg i.p. last 5 days, mean ± SEM vs HDM-treated group
Procedure: as §1, §2, §3

## C[C@@H]1C[C@H]2[C@@H]3CCC4=CC(=O)C=C[C@]4(C)[C@@]3(F)[C@@H](O)C[C@]2(C)[C@@]1(O)C(=O)CO [Dexamethasone, dexamethasone]
VNN1−/− mice; 50 mg/ml methacholine
  average percentage reduction of AHR: 55.2±4.9%
VNN1−/− mice; 100 mg/ml methacholine
  average percentage reduction of AHR: 53.3%
VNN1−/− mice
  reduction in eosinophils (BALF): 36.1%
  reduction in total BALF cells: 40.9%
WT mice; 50 mg/ml methacholine challenge
  average percentage reduction of AHR: 78.1%
WT mice; 100 mg/ml methacholine challenge
  average percentage reduction of AHR: 80.2%
WT mice
  reduction in eosinophils (BALF): 83.6±3.7%
  reduction in total BALF cells: 70.0±4.3%
